Source: patent US7148020B2, “Triple polypeptide complexes” (Arexis AB, priority 2001, dated 2006)
Ends that are not written are not given here.

Legend:
[1] = test system: CII(256-270)/Aq-specific T cell hybridoma cells; assay: Antigen presentation, IL-2 production of T cell hybridoma measured by ELISA; type: cell-based, mice
Experimental: Antigen-presentation of polypeptides and triple helical polypeptide complexes was studied using A^q-restricted HDQ.9, A^q-restricted HRC.2, A^q-restricted HCQ.4, and DR4-restricted 1259 T cell hybridomas. Briefly, A^q-restricted spleen cells were derived from DBA/1 mice, and DR4-restricted spleen cells were derived from DR4^+/_H-2^−/_mice. T cell hybridoma cells (5×10^4 cells/well) were incubated with polypeptides and polypeptide complexes (20 μg/mL, dilution 1:5) and 5×10^5 spleen cells per well (normal or fixed in 1% paraformaldehyde for 15 min at room temperature) in a volume of 200 μL in 96-well plates for 24 hours. The reactivity of the hybridoma cells toward the polypeptides and triple helical polypeptide complexes, reflected by IL-2 production, was measured by ELISA using europium-labeled streptavidin (WALLAC, Turku).

[2] = test system: HCQ.4 T cell hybridoma cells; assay: T cell hybridoma stimulation with Langerhans cells, IL-2 by CTLL assay; type: cell-based, mice; settings: 10 μg/mL, Langerhans cells as antigen presenting cells, 24 hours (FIG. 3)
Experimental: Langerhans cells (dendritic cells) were prepared from ear skin of B10Q×DBA/1 mice and purified with selection on N418 marker. Once purified, Langerhans cells were mixed with HCQ.4 T cell hybridoma cells (1×10^5 cell/well), and the mixture incubated with media containing 10 μg/mL of [(Gly-Pro-Hyp)5-CII(259-274)-(Gly-Pro-Hyp)2]3LAhx (a linked polypeptide), CII(259-270) (an unlinked polypeptide), or native rat CII for 24 hours. After the 24-hour incubation, 0.5 μCi ^3H-thymidine/well (Radiochemical Centre, Amersham,UK) was added, and the cells incubated for an additional 18 hours. After this incubation, the supernatants were assayed for IL-2 content using a CTLL assay. Results were presented as means of duplicates.

[3] = test system: C3H.Q mice, arthritis induced with rat CII; assay: Vaccination of adult mice, arthritis induced with rat CII; type: in vivo
Experimental: Male and female C3H.Q mice were used in two separate experiments. In each experiment, adult mice 8–12 weeks old were injected intradermally at the base of the tail with CII(256-270) (unlinked polypeptides), [(Gly-Pro-Hyp)5-CII(259-274)-(Gly-Pro-Hyp)2]3LAhx (linked polypeptides), or PBS. Specifically, each mouse received 100 μL of PBS or 100 μL of polypeptide (100 μg) emulsified in incomplete Freund's adjuvant.
After three weeks, the mice were treated with rat CII emulsified in complete Freund's adjuvant. Specifically, each mouse received 100 μL containing 100 μg of rat CII injected intradermally around the base of the tail. […] In addition, five weeks after treating the mice with rat CII, blood samples were collected to determine the antibody response.

C1 mAb and M2.139 mAb = assay: Immunoreactivity of conformation dependent monoclonal antibodies on coated microtiter wells; type: binding, mouse; settings: compared with native CII (FIG. 8)
Experimental: Microtiter plates (Nunc, Wiesbaden, Germany) were coated overnight with [(Gly-Pro-Hyp)5-CII(358-366Hyp-369)-(Gly-Pro-Hyp)2]3LAhx or [(Gly-Pro-Hyp)5-CII(551-552Hyp-564)-(Gly-Pro-Hyp)2]3LAhx at 4° C. and blocked with 2% BSA in phosphate buffered saline (PBS, pH 7.4) for one hour. The presentation of a native collagen conformation on the plastic surface of the microtiter well was controlled by the immunoreactivity of two mouse monoclonal antibodies (C1 mAb having specificity for the CII(358-369) region and M2.139 mAb having specificity for the CII(551-564) region) that recognize the CII epitopes in a conformation dependent manner as confirmed in FIG. 8. Identical titration curves for the native CII and the synthetic polypeptides indicate that the synthetic polypeptides have a perfect image of the conformational epitope. […] Heat denaturation was achieved by heating the CII polypeptide to greater than 50° C. for two hours prior to the coating of the microtiter wells.

[4] = test system: monoclonal anti-CII antibody EB2; assay: ELISA, coated polypeptide complexes capture anti-CII monoclonal antibody; type: binding; settings: monoclonal antibody EB2, Mouse; coated wells
Source text: (§1) Triple helical polypeptide complexes [(Gly-Pro-Hyp)5-CII(358-366Hyp-369)-(Gly-Pro-Hyp)2]3LAhx, [(Gly-Pro-Hyp)5-CII(259-273Hyp-274)-(Gly-Pro-Hyp)2]3LAhx, [(Gly-Pro-Hyp)5-CII(259-273Hyp-274)-CII(359-366Hyp)-(Gly-Pro-Hyp)2]3LAhx, [(Gly-Pro-Hyp)5-CII(494-504Hyp)-(Gly-Pro-Hyp)2]3LAhx, and [(Gly-Pro-Hyp)5-CII(551-552Hyp-564)-(Gly-Pro-Hyp)2]3LAhx were used in an ELISA to detect anti-CII-antibodies. Specifically, Immulon2 HB (Dynex/Technologies Inc., USA) plates were coated with [(Gly-Pro-Hyp)5-CII(358-366Hyp-369)-(Gly-Pro-Hyp)2]3LAhx, [(Gly-Pro-Hyp)5-CII(259-273Hyp-274)-(Gly-Pro-Hyp)2]3LAhx, [(Gly-Pro-Hyp)5-CII(259-273Hyp-274)-CII(359-366Hyp)-(Gly-Pro-Hyp)2]3LAhx, [(Gly-Pro-Hyp)5-CII(494-504Hyp)-(Gly-Pro-Hyp)2]3LAhx, and [(Gly-Pro-Hyp)5-CII(551-552Hyp-564)-(Gly-Pro-Hyp)2]3LAhx in a volume of 50 μL/well and at a concentration of 5 μg/mL. Wells coated with native rat CII (rCII; 10 μg/mL) were used as a positive control, while negative controls included wells coated with native rat type I collagen (rCI; 10 μg/mL) and wells coated with phosphate-buffered saline (PBS; pH 7.4).
(§2) After coating, the plates were incubated for at least one hour in a humid chamber at 4° C. After incubation, the plates were washed three times with PBS using an automatic microtiter plate-washing device (Skan Washer 300, Skatron instruments) and incubated with 50 μL/well of bovine serum albumin (BSA; Sigma, St. Louis, Mo.; 10 mg/mL in PBS) for two hours at 20° C. The wells were washed five times with PBS using ELISA washing equipment (Skatron, Norway) and incubated with a monoclonal anti-CII antibody (50 μL/well in titrated concentrations) for two hours at 20° C. After this two hour incubation, the plates were washed with PBS-Tween and incubated with a secondary enzyme-labeled antibody for two hours at 20° C. For detection of mouse antibodies, peroxidase labeled goat anti-mouse IgG (H+L) (Jackson ImmunoResearch Laboratories, Inc., USA) were used. For detection of rat antibodies, peroxidase labeled goat anti-rat IgG (H+L) (Jackson ImmunoResearch Laboratories, Inc. USA) were used.
(§3) After washing the wells with PBS, the assay was developed using the ABTS system (Boehringer-Mannheim, Mannheim, Germany), and the absorbance levels determined at 405 nm (ELISA reader, Titertek). Titers and concentrations of the monoclonal antibodies were calculated using limiting dilution (ELISA software: HyperELISA 3.0).

[5] = test system: monoclonal anti-CII antibody 125.5; assay: as above; type: binding; settings: monoclonal antibody 125.5, Rat; coated wells
Source text: as §1, §2, §3

[6] = test system: monoclonal anti-CII antibody M2 84; assay: as above; type: binding; settings: monoclonal antibody M2 84, Mouse; coated wells
Source text: as §1, §2, §3

[7] = test system: monoclonal anti-CII antibody 126.35; assay: as above; type: binding; settings: monoclonal antibody 126.35, Rat; coated wells
Source text: as §1, §2, §3

[8] = test system: monoclonal anti-CII antibody 126.30; assay: as above; type: binding; settings: monoclonal antibody 126.30, Rat; coated wells
Source text: as §1, §2, §3

[9] = test system: monoclonal anti-CII antibody 145.322; assay: as above; type: binding; settings: monoclonal antibody 145.322, Rat; coated wells
Source text: as §1, §2, §3

[10] = test system: monoclonal anti-CII antibody M2 87; assay: as above; type: binding; settings: monoclonal antibody M2 87, Mouse; coated wells
Source text: as §1, §2, §3

[11] = test system: monoclonal anti-CII antibody M2 88; assay: as above; type: binding; settings: monoclonal antibody M2 88, Mouse; coated wells
Source text: as §1, §2, §3

[12] = test system: monoclonal anti-CII antibody EB63; assay: as above; type: binding; settings: monoclonal antibody EB63, Mouse; coated wells
Source text: as §1, §2, §3

[13] = test system: monoclonal anti-CII antibody 146.50; assay: as above; type: binding; settings: monoclonal antibody 146.50, Rat; coated wells
Source text: as §1, §2, §3

[14] = test system: monoclonal anti-CII antibody 122.9; assay: as above; type: binding; settings: monoclonal antibody 122.9, Rat; coated wells
Source text: as §1, §2, §3

[15] = test system: monoclonal anti-CII antibody M2 76; assay: as above; type: binding; settings: monoclonal antibody M2 76, Mouse; coated wells
Source text: as §1, §2, §3

[16] = test system: monoclonal anti-CII antibody M2 139; assay: as above; type: binding; settings: monoclonal antibody M2 139, Mouse; coated wells
Source text: as §1, §2, §3

CD4+ T cells = assay: IL-2 response of CD4+ T cells upon in vitro stimulation, two-color flow cytometry; type: cell-based, human; settings: 10 μg per mL plus anti-CD28
HCQ.10 hybridoma = assay: Detection of transgenic CII from skin grafts by T cell hybridoma, CTLL assay; type: cell-based, mice; settings: HCQ.10, specific for glycosylated CII(256-270)
Experimental: (§4) T cell hybridomas HCQ.4 and HCQ.10, specific for CII(256-270) without posttranslational modification and with glucose on hydroxylysin at position K264 respectively, were used to detect transgenic […] prepared from TSC or recipients grafts at the end of arthritis experiments as described earlier (Michaelsson et al., J. Exp. Med., 180:745–749 (1994) and Corthay et al., Eur. J. Immunol., 28:2580–2590 (1998)). Briefly, syngeneic spleen cells were incubated with titrated amount of antigen at 5×10^5/mL together with the hybridoma cells at 5×10^4/mL. The interleukin-2 production was detected after 24 hours by transferring 100 μL of the supernatant to new plates. Plates were snap-frozen to avoid any contamination of living cells before addition of 10^4 CTLL/well. CTLL were incubated for 24 hours before thymidine-labeling and harvesting 15–18 hours later.

HCQ.4 hybridoma = assay: as above; type: cell-based, mice; settings: HCQ.4, specific for non-glycosylated CII(256-270)
Experimental: as §4

Substance: GEPGIAGFKGEQGPK [CII(256-270), non-glycosylated, unlinked polypeptide]
- stimulation of T cell hybridoma cells (IL-2 production) ([1]; non-fixed APC): potent stimulators
- stimulation of T cell hybridoma cells (IL-2 production) ([1]; presented by formalin-fixed spleen cells (FIGS. 25–26)): stimulated

Substance: [(Gly-Pro-Hyp)5-CII(259-274)-(Gly-Pro-Hyp)2]3LAhx [linked polypeptide composition]
- stimulation of T cells (IL-2 content, CTLL assay, CPM) [2]: stimulated T cells
- development of arthritis ([3]; adult C3H.Q mice, 100 μg intradermally in incomplete Freund's adjuvant (FIG. 6)): abrogated development of arthritis
- antibody response ([3]; five weeks after treating the mice with rat CII): lower

Substance: heat denatured CII: CII polypeptide heated to greater than 50° C. for two hours prior to coating
- binding of C1 mAb / M2.139 mAb, titration curves (C1 mAb and M2.139 mAb): does not bind

Substance: rCII: native rat type II collagen, positive control
- stimulation of T cells (IL-2 content, CTLL assay, CPM) [2]: did not
- end point titer value in ng antibody/mL [4]: <10 ng antibody/mL
- end point titer value in ng antibody/mL [5]: 10 ng antibody/mL
- end point titer value in ng antibody/mL [6]: 10 ng antibody/mL
- end point titer value in ng antibody/mL [7]: 10 ng antibody/mL
- end point titer value in ng antibody/mL [8]: 10 ng antibody/mL
- end point titer value in ng antibody/mL [9]: 100 ng antibody/mL
- end point titer value in ng antibody/mL [10]: 10 ng antibody/mL
- end point titer value in ng antibody/mL [11]: 10 ng antibody/mL
- end point titer value in ng antibody/mL [12]: 100 ng antibody/mL
- end point titer value in ng antibody/mL [13]: 100 ng antibody/mL
- end point titer value in ng antibody/mL [14]: 10 ng antibody/mL
- end point titer value in ng antibody/mL [15]: 10 ng antibody/mL
- end point titer value in ng antibody/mL [16]: 10 ng antibody/mL

Substance: tetanus toxoid [TT]
- IL-2 response of CD4+ T cells (percent of IL-2-producing CD4+ T cells) (CD4+ T cells; patient RA 1): 0.38%
- IL-2 response of CD4+ T cells (percent of IL-2-producing CD4+ T cells) (CD4+ T cells; patient RA 2): 0.61%
- IL-2 response of CD4+ T cells (percent of IL-2-producing CD4+ T cells) (CD4+ T cells; patient RA 3): 0.20%

Substance: whole CII protein: whole type II collagen protein
- stimulation of hybridoma (IL-2, CTLL assay) (HCQ.10 hybridoma): respond
- stimulation of hybridoma (IL-2, CTLL assay) (HCQ.4 hybridoma): respond
